# Assay: gradient 5% acetonitrile 3 min, to 50% in 2 min, to 85% in 15 min, held 3 min, 100 µL/min
# Settings: column: Zorbax Extend-C18 2.1 x 50 mm; eluents: water / acetonitrile, 0.1% formic acid
# In short: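 Retention times come from adduct peaks that were picked computationally and then checked by hand. The standards, pure and pooled in mixtures of ~100 molecules, were run on a Zorbax Extend-C18 column (2.1 × 50 mm, 1.8 μm) at 100 μL/min with water and acetonitrile, each with 0.1% formic acid. Detection was by quadrupole time-of-flight mass spectrometry in positive and negative ionization mode, with a dead volume of 40 μL and a dwell volume of 900 μL.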
row,RP-LC retention time [s],SMILES
1,596,O=C(Cn1c(=O)n(-c2ccccc2)c2ncccc21)NCCCN1CCOCC1
2,618,CNC(=O)c1cc(C(C)(C)C)[nH]n1
3,890,Cc1cc2nc(C(=O)Nc3ccc(C#N)cc3)cc(C)n2n1
4,831,Cn1c(C(=O)NCCCN2CCCC2=O)cc2c(-c3cccs3)nn(-c3ccccc3)c21
5,694,Cc1ccc(NC(=O)N2CCCC(Cn3c(C4CC4)nc4cccnc43)C2)c(C)c1 (stereo not drawn)
6,583,CS(=O)(=O)N1CCc2ccc(C(=O)NCCN3CCC(N4CCCCC4)CC3)cc21
7,1200,CCOc1ccc(C(=O)Nc2nc3c(s2)CCc2ccccc2-3)cc1
8,926,CCc1noc(NC(C)=O)c1-c1ccc(C)c(S(=O)(=O)N2CCCCCC2)c1
9,838,CCc1ccc(NC(=O)N2CCC(n3cnc4c(C)cccc4c3=O)CC2)cc1
10,668,CCCn1c(CCNC(=O)c2ccc(C)cc2)nc2cccnc21
11,818,O=C(NCc1ccco1)c1ccc(NS(=O)(=O)c2cccc(C(F)(F)F)c2)cc1
12,1060,CCc1nc(-c2cccc(-c3noc(CNS(=O)(=O)c4ccc(F)cc4)n3)c2)cs1
13,759,CCCCNC(=O)c1ccc2c(c1)NC(=O)C1CCCCN21 (stereo not drawn)
14,539,O=c1c(NCCc2cccnc2)nc2ccncc2n1Cc1ccccc1
15,723,Cc1nc2ccn(Cc3ccco3)c(=O)c2cc1C(=O)NC1CCCC1
16,1240,CCn1nccc1-c1cccc(-c2noc(C3(c4ccc(OC)cc4)CC3)n2)c1
17,1150,O=C(Nc1cccc(Cl)c1)N1CCc2nc(-c3ccc(Cl)cc3)ncc2C1
18,877,COc1cccc(C(=O)N2CCN(c3nc4ccccc4n(C)c3=O)CC2)c1
19,783,CCCn1c(C2CCN(S(=O)(=O)c3ccccc3)C2)nc2cccnc21 (stereo not drawn)
20,799,Cc1nc(-c2ccccc2)sc1C(=O)NC1CC1
21,790,CCN1CCCCc2cc(C(=O)NC3CCS(=O)(=O)C3)sc21 (stereo not drawn)
22,724,COCCN1C(=O)CCc2cc(NS(=O)(=O)c3cc(OC)ccc3OC)ccc21
23,906,CCOC(=O)C1=CN(CC(=O)NCc2ccc(Cl)cc2)S(=O)(=O)N=C1C

row,RP-LC retention time [s],SMILES
1,1350,CCc1nc2cc(-c3noc(-c4ccc(C)c(F)c4)n3)ccc2o1
2,798,CCc1noc(NC(C)=O)c1-c1ccc(C)c(S(=O)(=O)Nc2ccccc2F)c1
3,783,CCn1cc(CC(=O)NCC2CCCCC2)c2cccnc21
4,1050,CCCCOC(=O)c1ccc(NC(=O)c2cnc3scc(C)n3c2=O)cc1
5,739,CCN(c1ccccc1)S(=O)(=O)c1cc(-c2[nH]ncc2C(=O)N(C)C)oc1C
6,1090,O=C(Cn1cccc1-c1nc(-c2ccccc2)no1)Nc1ccc2c(c1)OCCO2
7,672,CCC(CC)C(=O)Nc1c(-c2ccc(OC)cc2)nc2cc(C)ccn12
8,697,COc1cc(C)c(Br)cc1S(=O)(=O)N1CCC(C(N)=O)CC1
9,670,CCOC(=O)Nc1nc2c(s1)CN(S(=O)(=O)N(C)C)CC2
10,1050,CCn1cc2c3c(cccc31)CN(C(=O)c1ccc(Br)o1)CC2
11,1230,CCOC(=O)c1cnc2c(-c3ccc(Br)cc3)c(C)nn2c1N
12,730,O=C(CCn1cnc2cc(-c3noc(COc4ccccc4)n3)ccc21)N1CCCC1
13,875,O=C([C@@H]1C[C@H](F)CN1S(=O)(=O)c1ccc(F)c(Cl)c1)N1CCCCC1
14,554,O=c1c(=O)n(-c2ccc(Br)cc2)ccn1Cc1ccncc1
15,785,CC(=O)Nc1ccc(C(=O)NCc2ccc(Br)cc2)c(N2CCOCC2)c1
16,660,CCC(=O)Nc1ccc(-n2cnc(C(=O)NCC3CC3)c2)nc1
17,754,Cc1nc(CC(=O)Nc2ccc(F)c(F)c2)cs1
18,598,O=C(Cc1cccs1)NC1CCc2nnc(C3CC3)n2CC1 (stereo not drawn)
19,690,O=C(NC1CCCCC1)c1c2c(nc3ccccc13)CCC2
20,1230,CCOc1ccccc1C(=O)Nc1ccc(Cl)c(C(F)(F)F)c1
21,710,Cc1nnc2c(=O)n(CC(=O)NCc3ccc(F)cc3Cl)c3cccnc3n12
22,545,Cc1nnc(NC(=O)CN2CCC(c3nnc(C(F)(F)F)o3)CC2)s1
23,1000,CCOC(=O)c1ccc(NC(=O)C2C(=O)N(C)C3(C)CC2c2ccccc2O3)cc1 (stereo not drawn)

row,RP-LC retention time [s],SMILES
1,990,Fc1ccc(-c2nnc(Cc3nc(-c4cccc(F)c4)no3)o2)cc1
2,925,COc1ccc(-c2noc(C3CCCN3C(=O)Nc3ccc(C)c(C)c3)n2)cc1 (stereo not drawn)
3,713,O=C(NCCC1CCN(C(=O)Nc2ccccc2F)CC1)c1ccoc1
4,859,Cc1cc(C)n(-c2nc(C)c(C(=O)N(CCO)Cc3ccccc3)s2)n1
5,965,O=C(CSc1cc(-n2cccn2)ncn1)Nc1ccccc1Br
6,664,CCN1CCN(C(=O)C2CCN(S(=O)(=O)c3ccc4c(c3)NC(=O)CO4)CC2)CC1
7,683,Cc1nn(C2CCS(=O)(=O)C2)c2nc(-c3ccco3)cc(C(=O)NCC3CCCO3)c12 (stereo not drawn)
8,1100,CC(C)c1ccc(-n2ccnc(NC(=O)Nc3ccc(F)cc3)c2=O)cc1
9,630,O=C(Nc1c(-c2ccccc2)nc2ccccn12)c1c(F)cccc1F
10,1030,CC(NC(=O)c1ccco1)c1nc(-c2ccc(Oc3ccccc3)cc2)no1 (stereo not drawn)
11,558,Cc1sc2cc(C(=O)N3CCN(c4ccccn4)CC3)[nH]c2c1CN1CCCC1
12,1060,Cc1ccc(S(=O)(=O)CCC(=O)N2CCCC2c2nc(-c3ccc(Cl)cc3)no2)cc1 (stereo not drawn)
13,657,COCC(=O)NC1CCC12CCN(S(=O)(=O)c1c(C)nn(C)c1C)CC2 (stereo not drawn)
14,1210,Cc1ccc2c(c1)N(Cc1nc(-c3ccc(OC(F)(F)F)cc3)no1)C(=O)CO2
15,1110,CCCN1CCN(c2cc(C(=O)O)c3cc(NS(=O)(=O)c4ccccc4)ccc3n2)CC1
16,586,O=C(Cc1cccs1)NCC1CCS(=O)(=O)C1 (stereo not drawn)
17,858,CCCn1cc(C2=CCN(C(=O)Nc3ccc(OC)cc3)CC2)c2cccnc21
18,957,Cc1cccc(C(C)C)c1NC(=O)C1CCN(S(C)(=O)=O)c2ccccc2O1 (stereo not drawn)
19,736,CC(C)NC(=O)c1ccc2c(c1)Sc1ncccc1C(=O)N2C(C)C
20,782,COc1cccc(NC(=O)C2CCc3nc(N4CCCCC4)ncc3C2)c1 (stereo not drawn)
21,842,Cc1cccc(-n2c(=O)c3c(cc(C)n3C)n(CC(=O)Nc3ccccc3Cl)c2=O)c1
22,944,CCOc1ccc(NC(=O)N2CCCN(c3ncccc3-c3nc(C4CC4)no3)CC2)cc1
23,684,CCCS(=O)(=O)N1CCC(c2nnc(C3CC3)s2)CC1

row,RP-LC retention time [s],SMILES
1,734,CCc1cc(=O)n(CC(=O)N2CCc3ccccc32)c(N2CCOCC2)n1
2,745,O=C(NCC1CCN(S(=O)(=O)C2CC2)CC1)Oc1ccccc1
3,636,CCn1cnc2ccc(-c3noc(C(C)NC(=O)c4ccccc4)n3)cc21 (stereo not drawn)
4,617,COc1ccc(Nc2c(-c3ccc(O)c(OC)c3)nc3nc(C)cc(C)n23)cc1
5,772,CCc1cccc(NC(=O)Nc2cnn(-c3ncc(N(C)C)cn3)c2)c1
6,576,COc1cccc(-c2[nH]ncc2CN2CCC3(CC2)CC(O)CCO3)c1 (stereo not drawn)
7,878,CCOC(=O)c1ccc(N2C(=O)c3n[nH]c(C)c3C2c2ccc(OC)cc2OC)cc1 (stereo not drawn)
8,957,CC(C)c1cccc(NC(=O)C2CC(=O)N(c3cccc(NC(=O)C4CCC4)c3)C2)c1 (stereo not drawn)
9,927,O=C(NCCc1c[nH]c2ccc(Cl)cc12)c1cc2n(n1)CCCN(Cc1ccc(F)cc1)C2=O
10,623,CCOC(=O)CCNC(=O)N1CCCN(C)c2ccccc21
11,723,Cc1ccc(C)c(CS(=O)(=O)N2CCC(CN3CCCC(C)C3)CC2)c1 (stereo not drawn)
12,668,Cc1ccc(C(=O)N2CCC(C(=O)N3CCCCCCNC(=O)CC3)CC2)s1
13,979,CC(C)c1cc(C(=O)NC2CCCC2)nc2ccnn12
14,1280,Cn1nccc1C(=O)Nc1ccsc1-c1nc(-c2ccccc2)no1
15,718,CCc1nnc2ccc(NC(C)C)nn12
16,577,CCCNC(=O)N1CCCCC1c1n[nH]c(C)n1 (stereo not drawn)
17,874,O=C(Nc1nc(-c2cccs2)cs1)c1ccc2ncsc2c1
18,592,CCN(CC)CCNC(=O)Cn1c2ccccc2c2nc(=O)cc(C)n21
19,805,CSc1ccc(CNC(=O)Cn2cc(-c3nnco3)c3ccccc32)cc1
20,825,Cc1ccc(N2CCN(C(=O)C3CCc4sc(C(=O)N(C)C)cc4C3)CC2)cc1 (stereo not drawn)
21,606,COCC(C)(O)CNC(=O)c1ccc2nsnc2c1 (stereo not drawn)
22,663,CCN(CC)S(=O)(=O)c1ccc2c(c1)CC(C(=O)N1CCOCC1)N2C(C)=O (stereo not drawn)

row,SMILES,RP-LC retention time [s]
1,CC(C)C(=O)N1CCC2(CC1)NCc1ccccc1-n1ccnc12,574
2,c1ccc2sc(C3(NCC4CC4)CCCCC3)cc2c1,799

# — the METLIN SMRT retention time set (Domingo-Almenara et al. 2019)
